From ChEMBL document CHEMBL4330071 (Eur J Med Chem, 2019)

Experiments:
[1] = target: T1, Tyrosine-protein kinase ABL1 (Homo sapiens, UniProt P00519); assay: Inhibition of human ABL1 assessed as residual activity at 10 uM using EAIYAAPFAKKK as substrate preincubated for 20 mins followed by [gamma-33P]-ATP addition and measured after 120 mins by Hotspot assay relative to control
[2] = target: RAC-alpha serine/threonine-protein kinase (Homo sapiens) (UniProt P31749); assay: Inhibition of human AKT1 assessed as residual activity at 10 uM using KGSGSGRPRTSSFAEG as substrate preincubated for 20 mins followed by [gamma-33P]-ATP addition and measured after 120 mins by Hotspot assay relative to control
Sequence of RAC-alpha serine/threonine-protein kinase (Homo sapiens) (P31749 whole entry): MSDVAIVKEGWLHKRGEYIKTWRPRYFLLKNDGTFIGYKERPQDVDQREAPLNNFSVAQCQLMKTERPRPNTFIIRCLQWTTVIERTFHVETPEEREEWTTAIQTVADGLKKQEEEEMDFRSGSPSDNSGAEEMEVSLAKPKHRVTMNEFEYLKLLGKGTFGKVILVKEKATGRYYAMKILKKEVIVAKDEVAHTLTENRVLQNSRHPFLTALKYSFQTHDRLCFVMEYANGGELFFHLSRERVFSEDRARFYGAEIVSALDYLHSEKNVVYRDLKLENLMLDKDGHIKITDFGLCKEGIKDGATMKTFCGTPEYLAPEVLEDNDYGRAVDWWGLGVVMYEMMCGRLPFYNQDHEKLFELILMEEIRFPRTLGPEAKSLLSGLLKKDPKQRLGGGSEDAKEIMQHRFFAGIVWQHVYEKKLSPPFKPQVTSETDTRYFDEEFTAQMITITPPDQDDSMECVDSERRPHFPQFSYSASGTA

[3] = target: Cyclin-dependent kinase 4/cyclin D1 (Homo sapiens) (UniProt P11802+P24385); assay: Inhibition of human CDK4/cyclin-D1 assessed as residual activity at 10 uM using RB protein as substrate preincubated for 20 mins followed by [gamma-33P]-ATP addition and measured after 120 mins by Hotspot assay relative to control; assay type: protein-complex assay
[4] = target: Cyclin-dependent kinase 5/CDK5 activator 1 (Homo sapiens) (UniProt Q00535+Q15078); assay: Inhibition of human CDK5/p25 assessed as residual activity at 10 uM using histone H1 as substrate preincubated for 20 mins followed by [gamma-33P]-ATP addition and measured after 120 mins by Hotspot assay relative to control; assay type: protein-complex assay
Sequence of Cyclin-dependent kinase 5/CDK5 activator 1 (Homo sapiens) (Q00535 whole entry): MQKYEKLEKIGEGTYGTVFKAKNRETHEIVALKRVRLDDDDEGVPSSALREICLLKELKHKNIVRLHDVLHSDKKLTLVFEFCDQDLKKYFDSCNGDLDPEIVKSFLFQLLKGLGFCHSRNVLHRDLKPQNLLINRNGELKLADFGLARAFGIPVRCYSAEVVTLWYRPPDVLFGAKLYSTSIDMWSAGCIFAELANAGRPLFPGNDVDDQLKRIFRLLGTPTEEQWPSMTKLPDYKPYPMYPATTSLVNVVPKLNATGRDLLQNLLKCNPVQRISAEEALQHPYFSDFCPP
Sequence of Cyclin-dependent kinase 5/CDK5 activator 1 (Homo sapiens) (Q15078 99-307 partner limits assumed): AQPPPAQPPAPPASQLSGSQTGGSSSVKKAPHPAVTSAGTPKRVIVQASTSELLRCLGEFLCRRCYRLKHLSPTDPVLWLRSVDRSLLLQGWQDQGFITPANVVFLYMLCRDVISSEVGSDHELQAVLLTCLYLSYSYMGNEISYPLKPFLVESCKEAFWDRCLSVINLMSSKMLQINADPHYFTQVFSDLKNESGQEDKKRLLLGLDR

[5] = target: Cyclin-dependent kinase 7/ cyclin H (Homo sapiens) (UniProt P51946+P50613); assay: Inhibition of human CDK7/cyclin-H assessed as residual activity at 10 uM using MBP as substrate preincubated for 20 mins followed by [gamma-33P]-ATP addition and measured after 120 mins by Hotspot assay relative to control; assay type: protein-complex assay
[6] = target: CDK9/cyclin T1 (Homo sapiens) (UniProt O60563+P50750); assay: Inhibition of human CDK9/cyclin-T1 assessed as residual activity at 10 uM using KTFCGTPEYLAPEVRREPRILSEEEQEMFRDFDYIADWC as substrate preincubated for 20 mins followed by [gamma-33P]-ATP addition and measured after 120 mins by Hotspot assay relative to control; assay type: protein-complex assay
[7] = target: Platelet-derived growth factor receptor alpha (Homo sapiens, UniProt P16234); assay: Inhibition of human PDGFRalpha assessed as residual activity at 10 uM using poly[Glu:Tyr] (4:1) as substrate preincubated for 20 mins followed by [gamma-33P]-ATP addition and measured after 120 mins by Hotspot assay relative to control
Sequence of Platelet-derived growth factor receptor alpha (P16234 whole entry, the tested form may be a part): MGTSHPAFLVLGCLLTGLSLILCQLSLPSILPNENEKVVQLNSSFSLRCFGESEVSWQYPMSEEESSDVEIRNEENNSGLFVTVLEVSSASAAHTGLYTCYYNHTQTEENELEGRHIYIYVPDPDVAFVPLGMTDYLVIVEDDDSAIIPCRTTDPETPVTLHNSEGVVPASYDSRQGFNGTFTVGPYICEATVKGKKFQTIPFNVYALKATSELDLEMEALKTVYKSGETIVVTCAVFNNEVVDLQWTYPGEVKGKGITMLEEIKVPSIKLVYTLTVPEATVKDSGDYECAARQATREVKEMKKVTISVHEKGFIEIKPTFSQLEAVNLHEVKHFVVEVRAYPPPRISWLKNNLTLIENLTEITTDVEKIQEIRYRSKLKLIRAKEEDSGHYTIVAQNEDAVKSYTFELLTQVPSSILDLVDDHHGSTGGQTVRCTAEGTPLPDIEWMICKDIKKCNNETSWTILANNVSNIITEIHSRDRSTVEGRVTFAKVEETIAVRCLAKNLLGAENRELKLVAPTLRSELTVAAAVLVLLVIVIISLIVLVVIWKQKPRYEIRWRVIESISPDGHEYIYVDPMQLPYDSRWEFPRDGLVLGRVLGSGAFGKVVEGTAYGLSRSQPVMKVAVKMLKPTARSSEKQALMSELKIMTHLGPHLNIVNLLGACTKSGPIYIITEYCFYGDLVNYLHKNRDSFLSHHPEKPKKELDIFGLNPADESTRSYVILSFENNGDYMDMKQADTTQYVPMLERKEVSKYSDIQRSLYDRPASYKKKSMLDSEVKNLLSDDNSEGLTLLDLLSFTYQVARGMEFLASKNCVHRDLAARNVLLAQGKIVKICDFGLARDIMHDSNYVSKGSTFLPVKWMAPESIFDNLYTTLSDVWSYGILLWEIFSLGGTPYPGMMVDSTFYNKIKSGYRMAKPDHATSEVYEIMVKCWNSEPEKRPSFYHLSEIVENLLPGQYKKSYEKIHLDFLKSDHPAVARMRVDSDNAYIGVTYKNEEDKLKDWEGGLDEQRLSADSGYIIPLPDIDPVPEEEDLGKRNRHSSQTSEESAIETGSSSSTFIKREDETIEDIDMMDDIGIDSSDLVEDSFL

[8] = target: Tyrosine-protein kinase ABL1 (Homo sapiens, UniProt P00519, F317I); assay: Binding affinity to human non-phosphorylated ABL1 F317I mutant (S229 to K512 residues) expressed in mammalian expression system after 60 mins by Kinomescan method
[9] = target: Tyrosine-protein kinase ABL1 (Homo sapiens, UniProt P00519, F317L); assay: Binding affinity to human non-phosphorylated ABL1 F317L mutant (S229 to K512 residues) expressed in mammalian expression system after 60 mins by Kinomescan method
[10] = target: Tyrosine-protein kinase ABL1 (Homo sapiens, UniProt P00519, H396P); assay: Binding affinity to human non-phosphorylated ABL1 H396P mutant (S229 to K512 residues) expressed in mammalian expression system after 60 mins by Kinomescan method
[11] = target: Tyrosine-protein kinase ABL1 (Homo sapiens, UniProt P00519, Q252H); assay: Binding affinity to human phosphorylated ABL1 Q252H mutant expressed in mammalian expression system after 60 mins by Kinomescan method
[12] = target: Tyrosine-protein kinase ABL1 (Homo sapiens, UniProt P00519, T315I); assay: Binding affinity to human phosphorylated ABL1 T315I mutant (S229 to K512 residues) expressed in mammalian expression system after 60 mins by Kinomescan method
[13] = target: T1, Tyrosine-protein kinase ABL1; assay: Inhibition of human ABL1 using EAIYAAPFAKKK as substrate preincubated for 20 mins followed by [gamma-33P]-ATP addition and measured after 120 mins by Hotspot assay
[14] = target: Fibroblast growth factor receptor 1 (Homo sapiens, UniProt P11362); assay: Inhibition of human FGFR1 using KKKSPGEYVNIEFG as substrate preincubated for 20 mins followed by [gamma-33P]-ATP addition and measured after 120 mins by Hotspot assay
Sequence of Fibroblast growth factor receptor 1 (P11362 whole entry): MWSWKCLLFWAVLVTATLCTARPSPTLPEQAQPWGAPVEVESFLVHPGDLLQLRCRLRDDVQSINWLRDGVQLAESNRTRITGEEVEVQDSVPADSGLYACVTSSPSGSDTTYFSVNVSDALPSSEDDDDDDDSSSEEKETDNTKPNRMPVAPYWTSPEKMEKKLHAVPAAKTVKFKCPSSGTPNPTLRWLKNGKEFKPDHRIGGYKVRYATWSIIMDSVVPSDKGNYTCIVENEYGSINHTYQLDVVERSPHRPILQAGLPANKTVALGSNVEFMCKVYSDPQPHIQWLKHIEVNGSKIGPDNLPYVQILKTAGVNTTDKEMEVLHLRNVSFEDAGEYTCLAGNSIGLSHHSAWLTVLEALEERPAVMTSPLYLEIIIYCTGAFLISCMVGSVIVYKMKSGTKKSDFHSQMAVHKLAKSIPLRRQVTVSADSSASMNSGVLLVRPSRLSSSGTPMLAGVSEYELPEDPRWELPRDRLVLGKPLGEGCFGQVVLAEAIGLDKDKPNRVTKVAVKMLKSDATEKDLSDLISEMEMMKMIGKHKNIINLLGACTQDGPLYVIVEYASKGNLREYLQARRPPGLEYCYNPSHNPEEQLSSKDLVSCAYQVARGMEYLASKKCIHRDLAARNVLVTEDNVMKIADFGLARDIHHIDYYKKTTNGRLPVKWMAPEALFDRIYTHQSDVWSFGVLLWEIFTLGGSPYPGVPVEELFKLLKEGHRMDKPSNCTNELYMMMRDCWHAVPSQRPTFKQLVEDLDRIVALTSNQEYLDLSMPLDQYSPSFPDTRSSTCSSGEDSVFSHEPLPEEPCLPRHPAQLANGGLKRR

[15] = target: Serine/threonine-protein kinase Nek2 (Homo sapiens, UniProt P51955); assay: Inhibition of human NEK2 using MBP as substrate preincubated for 20 mins followed by [gamma-33P]-ATP addition and measured after 120 mins by Hotspot assay
Sequence of Serine/threonine-protein kinase Nek2 (P51955 whole entry, the tested form may be a part): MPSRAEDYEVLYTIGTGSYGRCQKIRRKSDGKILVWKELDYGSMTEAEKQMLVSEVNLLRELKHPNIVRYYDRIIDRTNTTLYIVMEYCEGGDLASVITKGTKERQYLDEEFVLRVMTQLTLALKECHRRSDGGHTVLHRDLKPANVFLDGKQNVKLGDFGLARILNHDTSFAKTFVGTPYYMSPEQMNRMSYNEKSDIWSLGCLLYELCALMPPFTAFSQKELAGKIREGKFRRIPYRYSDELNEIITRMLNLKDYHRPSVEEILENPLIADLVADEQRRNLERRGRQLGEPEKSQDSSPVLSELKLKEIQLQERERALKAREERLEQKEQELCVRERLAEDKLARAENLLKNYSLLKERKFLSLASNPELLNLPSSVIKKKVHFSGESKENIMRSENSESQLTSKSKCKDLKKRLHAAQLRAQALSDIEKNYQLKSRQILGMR

[16] = target: Discoidin domain-containing receptor 2 (Homo sapiens, UniProt Q16832); assay: Inhibition of human DDR2 using KKSRGDYMTMQIG as substrate preincubated for 20 mins followed by [gamma-33P]-ATP addition and measured after 120 mins by Hotspot assay
Sequence of Discoidin domain-containing receptor 2 (Q16832 whole entry, the tested form may be a part): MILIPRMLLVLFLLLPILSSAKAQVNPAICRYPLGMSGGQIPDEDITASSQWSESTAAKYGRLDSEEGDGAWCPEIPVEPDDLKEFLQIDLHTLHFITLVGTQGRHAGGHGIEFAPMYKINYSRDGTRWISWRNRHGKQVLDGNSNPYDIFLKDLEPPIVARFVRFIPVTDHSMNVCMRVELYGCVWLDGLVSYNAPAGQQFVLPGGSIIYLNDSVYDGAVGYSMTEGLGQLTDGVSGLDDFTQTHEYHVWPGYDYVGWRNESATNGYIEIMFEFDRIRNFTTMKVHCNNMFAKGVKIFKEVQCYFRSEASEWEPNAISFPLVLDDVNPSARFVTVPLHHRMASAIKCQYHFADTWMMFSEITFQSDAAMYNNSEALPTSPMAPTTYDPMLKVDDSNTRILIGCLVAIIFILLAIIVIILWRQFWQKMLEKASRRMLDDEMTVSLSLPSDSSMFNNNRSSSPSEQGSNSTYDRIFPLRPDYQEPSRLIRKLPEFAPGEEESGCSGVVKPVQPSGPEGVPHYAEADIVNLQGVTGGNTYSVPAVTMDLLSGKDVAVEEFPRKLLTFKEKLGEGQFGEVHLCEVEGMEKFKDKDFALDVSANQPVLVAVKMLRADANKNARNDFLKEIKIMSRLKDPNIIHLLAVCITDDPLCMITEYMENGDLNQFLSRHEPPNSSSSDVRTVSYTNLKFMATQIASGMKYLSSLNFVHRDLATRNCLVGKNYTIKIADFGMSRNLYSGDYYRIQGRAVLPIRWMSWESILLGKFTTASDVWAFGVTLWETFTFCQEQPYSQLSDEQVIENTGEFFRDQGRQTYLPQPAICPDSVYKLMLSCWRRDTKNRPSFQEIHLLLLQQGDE

[17] = target: Vascular endothelial growth factor receptor 2 (Homo sapiens, UniProt P35968); assay: Inhibition of human KDR using poly[Glu:Tyr] (4:1) as substrate preincubated for 20 mins followed by [gamma-33P]-ATP addition and measured after 120 mins by Hotspot assay
[18] = target: Cyclin-dependent kinase 7/ cyclin H (Homo sapiens, UniProt P50613); assay: Inhibition of human CDK7/cyclin-H using MBP as substrate preincubated for 20 mins followed by [gamma-33P]-ATP addition and measured after 120 mins by Hotspot assay; assay type: protein-complex assay
Sequence of Cyclin-dependent kinase 7/ cyclin H (P51946 whole entry): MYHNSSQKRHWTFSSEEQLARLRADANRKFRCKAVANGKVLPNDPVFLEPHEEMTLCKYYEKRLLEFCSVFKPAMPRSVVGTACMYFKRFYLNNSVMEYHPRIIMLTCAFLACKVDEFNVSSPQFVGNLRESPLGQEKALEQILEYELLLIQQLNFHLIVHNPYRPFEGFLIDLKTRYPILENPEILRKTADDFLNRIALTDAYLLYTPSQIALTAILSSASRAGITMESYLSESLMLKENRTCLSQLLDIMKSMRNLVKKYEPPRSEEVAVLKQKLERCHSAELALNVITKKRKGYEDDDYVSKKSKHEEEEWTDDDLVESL
Sequence of Cyclin-dependent kinase 7/ cyclin H (P50613 whole entry): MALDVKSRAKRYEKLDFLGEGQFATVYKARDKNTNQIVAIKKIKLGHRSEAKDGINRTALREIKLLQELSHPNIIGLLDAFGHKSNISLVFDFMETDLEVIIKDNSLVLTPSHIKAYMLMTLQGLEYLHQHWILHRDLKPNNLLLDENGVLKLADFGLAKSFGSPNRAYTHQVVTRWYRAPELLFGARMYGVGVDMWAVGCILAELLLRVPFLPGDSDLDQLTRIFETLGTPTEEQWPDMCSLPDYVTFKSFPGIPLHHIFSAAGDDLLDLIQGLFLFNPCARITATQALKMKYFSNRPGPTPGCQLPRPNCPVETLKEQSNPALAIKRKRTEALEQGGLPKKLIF

MV4-11 [19] = assay: Growth inhibition of human MV4-11 cells harboring FLT3 ITD mutant at 10 uM after 72 hrs by CellTiter-Glo assay relative to control; assay type: functional; details: MV4-11, 72 h, read-out: GI
RS4-11 = assay: Growth inhibition of human RS4:11 cells harboring WT FLT3 at 10 uM after 72 hrs by CellTiter-Glo assay relative to control; assay type: functional; details: RS4-11, 72 h, read-out: GI
MV4-11 [20] = assay: Induction of apoptosis in human MV4-11 cells assessed as necrotic cells at 0.05 uM after 24 hrs by Annexin V-FITC/propidium iodide staining based flow cytometric analysis (reference value: 0%); assay type: functional
MV4-11 [21] = assay: Induction of apoptosis in human MV4-11 cells assessed as early apoptotic cells at 0.2 uM after 24 hrs by Annexin V-FITC/propidium iodide staining based flow cytometric analysis (reference value: 3.39%); assay type: functional
MV4-11 [22] = assay: Induction of apoptosis in human MV4-11 cells assessed as viable cells at 0.2 uM after 24 hrs by Annexin V-FITC/propidium iodide staining based flow cytometric analysis (reference value: 95.19%); assay type: functional; details: MV4-11, 24 h, read-out: Activity
MV4-11 [23] = assay: Induction of apoptosis in human MV4-11 cells assessed as late apoptotic cells at 1 uM after 24 hrs by Annexin V-FITC/propidium iodide staining based flow cytometric analysis (reference value: 1.42%); assay type: functional
MV4-11 [24] = assay: Induction of apoptosis in human MV4-11 cells assessed as necrotic cells at 1 uM after 24 hrs by Annexin V-FITC/propidium iodide staining based flow cytometric analysis (reference value: 0%); assay type: functional
[25] = Intrinsic clearance in human liver microsomes assessed per mg protein at 1 uM after 5 to 60 mins in presence of NADPH by LC-MS/MS analysis; assay type: ADME, Microsome; details: read-out: CLH

## CN1CCC(Nc2ccc(C(=O)Nc3cc(-c4cc(C#N)cs4)n[nH]3)cc2)CC1
[1]
  Activity: 8.32%
[2]
  Activity: 90.7%
[3]
  Activity: 49.2%
[4]
  Activity: 60.4%
[5]
  Activity: 27.1%
[6]
  Activity: 68.7%
[7]
  Activity: 30.2%
[8]
  Kd: > 10000 nM
[9]
  Kd: 6900 nM
[10]
  Kd: 280 nM
[11]
  Kd: 300 nM
[12]
  Kd: 500 nM
[13]; read-out: IC50
  IC50: 931 nM
[13]; read-out: pIC50 (converted)
  IC50: 1000 nM
[14]
  IC50: 962 nM
[15]
  IC50: 2090 nM
[16]
  IC50: 3470 nM
[17]
  IC50: 6260 nM
[18]
  IC50: 7910 nM
MV4-11 [19]
  inhibition of growth at 10 µM: 89.9%
RS4-11
  inhibition of growth at 10 µM: 1.33%
MV4-11 [20]
  Activity: 4.51%
MV4-11 [21]
  Activity: 25.33%
MV4-11 [22]
  viability at 0.2 µM: 48.8%
MV4-11 [23]
  Activity: 27.75%
MV4-11 [24]
  Activity: 6.35%
[25]
  microsomal CLint at 1 µM: 22.4 µL/min/mg
